Earlier results, collected in patent publication US8148574B2, “Method for producing 5-aminolevulinic acid hydrochloride” (Cosmo Oil Co., Ltd., priority 2005, dated 2012).

Conditions: in water, at room temperature; depends on pH, temperature and coexisting solute

solubility: ≥ 3000 mM
Structure (SMILES): Cl.NCC(=O)CCC(=O)O [5-aminolevulinic acid hydrochloride]
